Data as given in PubChem BioAssay (NCI).
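The compound was tested at five concentrations on cells cultured in 96-well plates, with a 48-hour exposure period. At the TGI there is no net growth.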

Assays:
Experiment in all cases: DTP human tumour cell line panel, 48 h
[1] = system: 786-0 renal
[2] = system: A498 renal
[3] = system: A549 NSCLC
[4] = system: ACHN renal
[5] = system: CAKI-1 renal
[6] = system: CCRF-CEM leukemia
[7] = system: COLO 205 colon
[8] = system: DLD-1 colon
[9] = system: DMS 114 small cell lung
[10] = system: DMS 273 small cell lung
[11] = system: EKVX NSCLC
[12] = system: HCC-2998 colon
[13] = system: HCT-116 colon
[14] = system: HCT-15 colon
[15] = system: HL-60(TB) leukemia
[16] = system: HOP-62 NSCLC
[17] = system: HOP-92 NSCLC
[18] = system: HT29 colon
[19] = system: IGROV1 ovarian
[20] = system: K-562 leukemia
[21] = system: KM12 colon
[22] = system: LOX IMVI melanoma
[23] = system: LXFL 529 NSCLC
[24] = system: M14 melanoma
[25] = system: M19-MEL melanoma
[26] = system: MALME-3M melanoma
[27] = system: MOLT-4 leukemia
[28] = system: NCI-H23 lung
[29] = system: NCI-H460 lung
[30] = system: NCI-H522 lung
[31] = system: OVCAR-3 ovarian
[32] = system: OVCAR-4 ovarian
[33] = system: OVCAR-5 ovarian
[34] = system: OVCAR-8 ovarian
[35] = system: RPMI-8226 leukemia
[36] = system: RXF 393 renal
[37] = system: RXF-631 renal
[38] = system: SF-268 CNS
[39] = system: SF-295 CNS
[40] = system: SF-539 CNS
[41] = system: SK-MEL-2 melanoma
[42] = system: SK-MEL-28 melanoma
[43] = system: SK-MEL-5 melanoma
[44] = system: SK-OV-3 ovarian
[45] = system: SN12C renal
[46] = system: SNB-19 CNS
[47] = system: SNB-75 CNS
[48] = system: SNB-78 CNS
[49] = system: SW-620 colon
[50] = system: TK-10 renal
[51] = system: U251 CNS
[52] = system: UACC-257 melanoma
[53] = system: UACC-62 melanoma
[54] = system: UO-31 renal
[55] = system: XF 498 CNS
[56] = system: HOP-18 NSCLC
[57] = system: KM20L2 colon
[58] = system: NCI-H226 lung

`COC(=O)C1CCC(C)CC1=O` (stereo unspecified) showed a TGI [1] of over 100 µM, a TGI [2] of over 100 µM and a TGI [3] of over 100 µM. It also gave a TGI [4] of over 100 µM, a TGI [5] of over 100 µM and a TGI [6] of over 100 µM. It also gave a TGI [7] of over 100 µM, a TGI [8] of over 100 µM and a TGI [9] of over 100 µM. The TGI [10] was over 100 µM, the TGI [11] was over 100 µM and the TGI [12] was over 100 µM. For the same molecule, the TGI [13] was over 100 µM, the TGI [14] was over 100 µM and the TGI [15] was over 100 µM. The TGI [16] was over 100 µM, the TGI [17] was over 100 µM and the TGI [18] was over 100 µM. The TGI [19] was over 100 µM, the TGI [20] was over 100 µM and the TGI [21] was over 100 µM. It also gave a TGI [22] of over 100 µM, a TGI [23] of over 100 µM and a TGI [24] of over 100 µM. For the same molecule, the TGI [25] was over 100 µM, the TGI [26] was over 100 µM and the TGI [27] was over 100 µM. For the same molecule, the TGI [28] was over 100 µM, the TGI [29] was over 100 µM and the TGI [30] was over 100 µM. For the same molecule, the TGI [31] was over 100 µM, the TGI [32] was over 100 µM and the TGI [33] was over 100 µM. The TGI [34] was over 100 µM, the TGI [35] was over 100 µM and the TGI [36] was over 100 µM. The TGI [37] was over 100 µM, the TGI [38] was over 100 µM and the TGI [39] was over 100 µM. For the same molecule, the TGI [40] was over 100 µM, the TGI [41] was over 100 µM and the TGI [42] was over 100 µM. The TGI [43] was over 100 µM, the TGI [44] was over 100 µM and the TGI [45] was over 100 µM. It also gave a TGI [46] of over 100 µM, a TGI [47] of over 100 µM and a TGI [48] of over 100 µM. For the same molecule, the TGI [49] was over 100 µM, the TGI [50] was over 100 µM and the TGI [51] was over 100 µM. For the same molecule, the TGI [52] was over 100 µM, the TGI [53] was over 100 µM and the TGI [54] was over 100 µM. For the same molecule, the TGI [55] was over 100 µM.
Molecule `Cc1ccc(NC(=O)CC/C(CC(=O)C(C)(C)C)=N/NC(=O)c2cc3ccccc3cc2O)cc1C` has a TGI [4] of over 100 µM, a TGI [5] of over 100 µM and a TGI [6] of 70.1 µM. For the same molecule, the TGI [7] was over 100 µM, the TGI [8] was over 100 µM and the TGI [9] was over 100 µM. The TGI [11] was over 100 µM, the TGI [12] was 55 µM and the TGI [13] was over 100 µM. It also gave a TGI [14] of over 100 µM, a TGI [15] of over 100 µM and a TGI [56] of over 100 µM. For the same molecule, the TGI [16] was over 100 µM, the TGI [17] was over 100 µM and the TGI [18] was over 100 µM. The TGI [19] was over 100 µM, the TGI [21] was over 100 µM and the TGI [57] was over 100 µM. The TGI [22] was 62.9 µM, the TGI [23] was over 100 µM and the TGI [24] was 96 µM. It also gave a TGI [25] of over 100 µM, a TGI [26] of over 100 µM and a TGI [27] of over 100 µM. The TGI [58] was over 100 µM, the TGI [28] was 47.6 µM and the TGI [29] was over 100 µM. The TGI [31] was over 100 µM, the TGI [32] was over 100 µM and the TGI [33] was over 100 µM. For the same molecule, the TGI [34] was over 100 µM, the TGI [36] was over 100 µM and the TGI [37] was over 100 µM. The TGI [38] was over 100 µM, the TGI [39] was over 100 µM and the TGI [41] was over 100 µM. For the same molecule, the TGI [42] was over 100 µM, the TGI [44] was over 100 µM and the TGI [45] was over 100 µM. The TGI [46] was over 100 µM, the TGI [48] was over 100 µM and the TGI [49] was over 100 µM. The TGI [51] was over 100 µM, the TGI [52] was over 100 µM and the TGI [53] was 66 µM. The TGI [54] was over 100 µM.
